Measurements reported in publication PMC3260207, “Site-Directed Mutations and the Polymorphic Variant Ala160Thr in the Human Thromboxane Receptor Uncover a Structural Role for Transmembrane Helix 4” (PLoS ONE, 2012).
Where a chain is given by its changes, count along the chain named.

How the values were obtained:
[1] = biological target: T1, TP A160T mutant (nsSNP variant) (Homo sapiens, UniProt P21731, A160T); assay: Reversal of basal (agonist-independent) calcium mobilization in transfected HEK293T cells; format: cell-based; conditions: HEK293T cells pre-treated with 1 µM unlabelled SQ 29,548, p<0.05
T1 construct: expressed in transfected cells; HEK293T (calcium assays)
T1 sequence (P21731 1-343 A160T): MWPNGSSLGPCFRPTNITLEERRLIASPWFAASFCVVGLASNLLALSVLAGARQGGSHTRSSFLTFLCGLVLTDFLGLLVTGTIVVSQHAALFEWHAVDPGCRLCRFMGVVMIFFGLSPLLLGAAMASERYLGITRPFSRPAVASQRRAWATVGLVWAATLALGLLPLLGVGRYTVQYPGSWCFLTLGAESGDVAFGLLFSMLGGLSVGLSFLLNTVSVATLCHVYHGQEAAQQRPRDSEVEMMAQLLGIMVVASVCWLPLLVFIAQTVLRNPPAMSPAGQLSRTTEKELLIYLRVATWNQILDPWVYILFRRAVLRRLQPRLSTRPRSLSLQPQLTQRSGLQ
Description: Changes in intracellular calcium were measured by using the fluorescent calcium sensitive dye Fluo-4NW (Invitrogen). After 6–8 hours of transient transfection of HEK293T cells using lipofectamine 2000, 100,000 viable cells were plated into each well of a 96-well tissue culture treated BD-falcon optilux plates. Cells mock transfected with vector pMT4 alone were used as a negative control. Following 24 hours of incubation at 37°C, the media was removed and cells were incubated with the dye Fluo-4NW (Invitrogen) containing 77 µg/ml of probenecid for 1 hour, as recommended by the manufacturer. […] Dose–response curves were generated and EC50 values calculated by nonlinear regression analysis using PRISM software version 5.0 (GraphPad Software Inc, San Diego, CA) after subtracting the responses of mock-transfected cells stimulated with same concentrations of agonists.
For estimation of calcium mobilized using the non-ratiometric calcium indicator Fluo-4NW, the ΔF/F ratio which approximately indicates calcium is calculated using the equation (19), ΔF/F = (F-Fbase)/(Fbase -B). Where F is the measured fluorescence intensity of Fluo-4NW, Fbase is the fluorescence intensity of Fluo-4NW in the cell before stimulation, and B is the background signal determined from areas adjacent to the cell. […]

[2] = biological target: T2, TP A160S mutant (Homo sapiens, UniProt P21731, A160S); assay: Heterologous competition binding, unlabeled U46619 against 4 nM [3H] SQ 29,548; conditions: read-out: Ki of agonist U46619, 4 nM [3H] SQ 29,548, 2 hr room temperature, Cheng-Prusoff from IC50
T2 construct: expressed in transfected cells; HEK293T (calcium assays)
T2 sequence (P21731 1-343 A160S): T1 sequence (P21731 1-343 A160T) with T160S
Description: (§1) Amino acid substitutions were introduced into the synthetic TPα gene carried by the expression vector pMT4 as described previously, [29]. DNA sequences of all the mutated genes were verified by automated DNA sequencing. To minimize variations in transfection efficiency, the total amount transfected DNA was kept constant in all cases at 1 µg of DNA per 7×10^5 cells. The wild type TP or mutant genes were expressed in COS-1 cells using a DEAE-dextran based transient transfection method, [29], and in HEK293T cells using lipofectamine 2000 (Invitrogen). Except unless specified, the membranes prepared from COS-1 cells were used for radioligand binding assays and immunoblots. For intracellular calcium determination assays and immunofluorescence imaging, HEK293T cells were used. For transient transfections of HEK293T cells using the plasmid pMT4, lipofectamine 2000 (Invitrogen) mediated transfection was used as described by the manufacturer. Membranes were prepared using Buffers A and B and as described previously, [29]. The protein concentration in the resuspended membrane pellet was determined using a modified DC protein assay kit from Bio-Rad Laboratories (Hercules, CA).
(§2) These were carried out in Buffer C for 60 min at room temperature, using 2 to 20 µg of membrane protein and different concentrations of [^3H] […] Binding of [^3H] […] Competition binding assays were performed using 4 nM [^3H] […] Binding was terminated by filtering under vacuum on GF/A filters (Millipore). Filter-bound radioactivity was measured using a liquid scintillation counter. Equilibrium dissociation constants (Kd) were determined from saturation isotherms using PRISM software version 5.0 (GraphPad Software Inc, San Diego, CA, USA). The Ki values were calculated from the IC50, using the equation of Cheng and Prusoff by PRISM software version 5.0. Where applicable, statistical significance of the data was evaluated using analysis of variance (ANOVA) and/or unpaired t test.

[3] = biological target: T1, TP A160T mutant (nsSNP variant); assay: as above; conditions: read-out: Ki of agonist U46619, 4 nM [3H] SQ 29,548, 2 hr room temperature, Cheng-Prusoff from IC50
Description: as §1, §2

[4] = biological target: T3, TP A160V mutant (Homo sapiens, UniProt P21731, A160V); assay: as above; conditions: read-out: Ki of agonist U46619, 4 nM [3H] SQ 29,548, 2 hr room temperature, Cheng-Prusoff from IC50
T3 construct: expressed in transfected cells; HEK293T (calcium assays)
T3 sequence (P21731 1-343 A160V): T1 sequence (P21731 1-343 A160T) with T160V
Description: as §1, §2

Effect on basal (agonist-independent) calcium mobilization [1]	Ki [2] [µM]	Ki [3] [µM]	Ki [4] [µM]	Structure (SMILES)
significant decrease in basal activity				O=C(O)CCC/C=C\C[C@@H]1[C@H](CNNC(=O)Nc2ccccc2)[C@H]2CC[C@@H]1O2 [SQ 29,548]
	1.52	0.72	1.51	CCCCC[C@H](O)/C=C/[C@@H]1[C@@H](C/C=C\CCCC(=O)O)[C@H]2CO[C@@H]1C2 [U46619]
